Here are results for 2 molecules from patent US12473310B2, “Vitamin D3 phosphate and pharmaceutically acceptable salts thereof, pharmaceutical compositions comprising the compound and methods for preparing the compound” (King's College London, priority 2020, dated 2025).

Data set [1] in a line: physchem. Type of data set: physicochemical. Particulars: for % Recovery, chemical stability with extraction fluid: 0.091 mg/mL; for recovery at 0.091 mg/mL: chemical stability with extraction fluid. As to the method: To validate the method of test agent recovery from the skin, solutions (1.0 mg/mL) of cholecalciferol phosphate were prepared in 100% PG and 100% water and the same concentration of cholecalciferol was prepared in 100% PG and PG:EtOH (50:50). The precise concentrations in these samples were analysed by HPLC using the method described above.
To assess the chemical stability of cholecalciferol and cholecalciferol phosphate in the donor solutions used in the Franz cell experiments, the 1.0 mg/mL of the samples prepared in the different solvents were incubated in a water bath at 37° C. for 24 h. In addition, to understand the chemical stability of cholecalciferol and cholecalciferol phosphate in the extraction solvents used in the skin deposition studies, a 1 mL of the sample of the drug in the different solvents was added into 10 mL of extraction fluid (PG:EtOH, 50:50 for cholecalciferol and MeOH:water, 90:10 for cholecalciferol phosphate). Samples with the extraction fluid were left in the water bath overnight at 37° C. and the sample concentration was analysed by HPLC method described above.

A short description of data set [2]: skin permeation and deposition, automated Franz diffusion cell (Example 5). The format is in vitro ADME. The settings on record: PG formulation. As to the method: For the final formulation, 61.5 mg of cholecalciferol phosphate acid in 4.1 mL hexane was added into 1.435 mL DURO-TAK 87-2051 (51.5 w/v %) with 16.4 μL α-tocopherol and 20.5 μL diethylene glycol monoethyl ether. Likewise, 120 mg of cholecalciferol phosphate disodium salt in 35.2 mL MeOH:water (10:1) was added to 1.336 mL of DURO-TAK 87-2051 (51.5 w/v %) in 56 mL ethyl acetate with 32 mg of α-tocopherol and 48 μL diethylene glycol monoethyl ether. Each formulation was spread evenly on the 10×10 cm patch tray and left overnight to dry completely. Following the complete drying of the solvents, the adhesive layer was covered by the M3 Release layer (SCOTCHPAK 9755, UK), compressed, and then cut using a 34 mm circular manual die cutter (SCP Super Cutting Press, UK).
Subsequently, 1 mL aliquots were applied to the skin.
The automated Franz diffusion cell was used to investigate the permeation of cholecalciferol, cholecalciferol phosphate salt and cholecalciferol phosphate acid through porcine skin. Fresh white adult porcine ears were obtained from a local butcher (Ginger Pig, UK). Any damaged ears were discarded. The ears were removed from the carcass after hair removal. […] The collected receiver fluid was analysed by HPLC methods described previously.
At the end of the transport studies, the Franz cells were dismantled, and the donor solution was collected into bottles containing 10 mL of extraction fluid; MeOH for cholecalciferol, cholecalciferol phosphate acid and MeOH:water (90:10) for cholecalciferol phosphate salt, by wiping the surface of the skin and the inside of the donor compartment with two wet and then two dry cotton buds. […] Each collection was analysed by the HPLC method described above. Thus, the amount of each test agent on the surface of the skin, deposited in the skin, and passed into the receiver fluid was determined so that % mass recovery per cm^2 per skin could be calculated and drug deposition profiles could be obtained.

Data set [3] can be described thus: physchem. Type of data set: physicochemical. Particulars: thermodynamic from solid, visual. As to the method: An aliquot of 2.5 mg cholecalciferol and 2.5 mg cholecalciferol phosphate disodium salt prepared according to Example 1 were weighed into glass vials and 100 μL aliquots of the test solvents with different dielectric constants; water, MeOH:water (90:10), ethylene glycol, methanol (MeOH), propylene glycol (PG), ethanol (EtOH), poly(ethylene glycol) (PEG-400), and mineral oil were added until the sample was fully dissolved visually. A precise determination of the solubility was undertaken using high-performance liquid chromatography (HPLC). In the HPLC solubility studies an excess amount of cholecalciferol and cholecalciferol phosphate was added into 2 mL of each test solvent; water, MeOH:water (90:10), MeOH, and PG, EtOH and mineral oil. The solutions were left stirring overnight at room temperature, (RT), 22° C. The saturation of the solutions was confirmed by the visual appearance of crystals and the drug suspensions were filtered through 0.2 μm syringe filters, diluted, and the concentration of each sample was assessed using the HPLC method detailed below.

Structures are written as SMILES. Counter-ions that a name gives are not always drawn. Bounds are passed on as bounds.

On to `C=C1CC[C@H](OP(=O)(O)O)C/C1=C/C=C1\CCC[C@@]2(C)C1CC[C@@H]2[C@H](C)CCCC(C)C` (some centres unmarked) [Cholecalciferol phosphate disodium salt, cholecalciferol phosphate disodium salt], for which, in data set [1], the “% Recovery, chemical stability with extraction fluid” value is given as 76.01 ± 1.42%. Also, in data set [1] (24 h, 1 mg/mL), the degradation was 20%. The recovery at 0.091 mg/mL in data set [1] (% Recovery) stood at 95.2 ± 5.88%. Further, in data set [2] (phosphate disodium salt), the “fold higher transdermal permeation through the skin compared to cholecalciferol” value was about 35.02 fold. Further, the figures for the solubility in data set [3] (organic solvent or mixture) and in data set [3] (water) were under 2000 µg/mL and under 2500 µg/mL, respectively.

Turning to `C=C1CC[C@H](O)C/C1=C/C=C1\CCC[C@]2(C)[C@@H]([C@H](C)CCCC(C)C)CC[C@@H]12` [Cholecalciferol, cholecalciferol, reference compound], the “% Recovery, chemical stability with extraction fluid” value in data set [1] stood at 90.52 ± 0.42%. The molecule also came in with a recovery at 0.091 mg/mL in data set [1] (% Recovery) of 91.76 ± 0.87%. Besides, in data set [1] (% Recovery, chemical stability without extraction fluid), the recovery at 24 h, 1 mg/mL is 90%. Also, in data set [2] (1.0 mm porcine skin, 24 h), the “transdermal permeation through the skin” value is given as 1,245.2 IU. The molecule further displayed a solubility in data set [3] (oil or lipid) of over 25000 µg/mL.
